Experiments:
CXCR3 = CXCR3 inhibition during chemokine-potentiated TLR9 activation of pDCs, IFN-α ELISA; type: cell-based, human; conditions: AMG487 0.1, 1 or 10 μM, CpG 0.25 μM, 24 hours
Procedure: Purified pDCs from HDs were cultured in media alone (control), with either a CpG TLR9 agonist (0.25 μM) or with CpG and either CXCL4 or CXCL10 (both at 10 μg/ml) alone or in the presence of the CXCR3 inhibitor AMG487 at 0, 0.1, 1 or 10 μM for 24 hours. IFN-α was quantified in the supernatants by ELISA.

PI3Kδ = PI3Kδ (Homo sapiens, UniProt O00329); conditions: at the concentration used (10 μM)
Sequence of PI3Kδ (O00329 whole entry): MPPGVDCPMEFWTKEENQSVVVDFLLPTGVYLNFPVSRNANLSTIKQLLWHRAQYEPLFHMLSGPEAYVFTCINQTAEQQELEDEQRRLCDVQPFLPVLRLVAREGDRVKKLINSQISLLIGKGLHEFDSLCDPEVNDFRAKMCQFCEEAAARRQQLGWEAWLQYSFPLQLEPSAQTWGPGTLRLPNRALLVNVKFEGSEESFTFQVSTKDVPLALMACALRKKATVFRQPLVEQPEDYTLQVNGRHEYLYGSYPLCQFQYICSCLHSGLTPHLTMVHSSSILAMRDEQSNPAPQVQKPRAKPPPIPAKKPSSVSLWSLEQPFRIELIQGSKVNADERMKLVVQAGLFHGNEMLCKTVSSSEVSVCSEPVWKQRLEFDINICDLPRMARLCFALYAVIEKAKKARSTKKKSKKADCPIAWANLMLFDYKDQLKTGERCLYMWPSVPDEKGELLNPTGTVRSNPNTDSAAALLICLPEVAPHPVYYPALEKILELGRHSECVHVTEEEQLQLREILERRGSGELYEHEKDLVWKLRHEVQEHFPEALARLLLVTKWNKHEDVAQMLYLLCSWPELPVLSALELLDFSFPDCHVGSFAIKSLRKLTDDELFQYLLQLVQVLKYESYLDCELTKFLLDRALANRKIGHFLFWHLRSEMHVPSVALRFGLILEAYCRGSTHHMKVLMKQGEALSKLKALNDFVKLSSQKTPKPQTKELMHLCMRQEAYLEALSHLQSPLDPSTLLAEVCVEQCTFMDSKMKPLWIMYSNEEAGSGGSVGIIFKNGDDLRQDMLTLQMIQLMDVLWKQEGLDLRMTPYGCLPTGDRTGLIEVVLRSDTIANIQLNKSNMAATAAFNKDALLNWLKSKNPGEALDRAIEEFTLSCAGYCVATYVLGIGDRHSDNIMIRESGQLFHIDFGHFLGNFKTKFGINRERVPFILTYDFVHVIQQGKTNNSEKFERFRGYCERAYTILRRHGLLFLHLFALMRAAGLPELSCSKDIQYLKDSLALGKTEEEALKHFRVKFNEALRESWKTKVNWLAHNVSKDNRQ
Sequence of PI3Kδ (P27986 whole entry partner): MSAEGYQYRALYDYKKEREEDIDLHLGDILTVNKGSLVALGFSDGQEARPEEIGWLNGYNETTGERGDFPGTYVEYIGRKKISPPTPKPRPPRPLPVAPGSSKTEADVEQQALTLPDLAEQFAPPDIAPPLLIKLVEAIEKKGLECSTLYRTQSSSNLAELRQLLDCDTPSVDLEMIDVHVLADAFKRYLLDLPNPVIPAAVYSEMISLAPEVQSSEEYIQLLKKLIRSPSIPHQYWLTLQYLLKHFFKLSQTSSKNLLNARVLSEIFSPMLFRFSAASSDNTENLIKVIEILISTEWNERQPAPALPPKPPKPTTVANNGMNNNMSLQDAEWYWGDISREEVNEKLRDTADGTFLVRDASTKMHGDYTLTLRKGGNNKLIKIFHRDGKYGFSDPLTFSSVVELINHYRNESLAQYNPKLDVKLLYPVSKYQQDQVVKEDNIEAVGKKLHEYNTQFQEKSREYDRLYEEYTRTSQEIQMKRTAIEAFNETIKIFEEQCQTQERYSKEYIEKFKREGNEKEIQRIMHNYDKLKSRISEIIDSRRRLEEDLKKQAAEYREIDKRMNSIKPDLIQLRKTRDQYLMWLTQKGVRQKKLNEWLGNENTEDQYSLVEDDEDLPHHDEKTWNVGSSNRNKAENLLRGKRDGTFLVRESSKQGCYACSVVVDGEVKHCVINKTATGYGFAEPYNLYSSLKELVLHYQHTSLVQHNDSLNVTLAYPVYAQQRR

Row | Compound | effect of CXCR3 inhibition on the activation of TLR9 by CXCL4 in pDCs (CXCR3; CXCL4 10 μg/ml) | effect of CXCR3 inhibition on the activation of TLR9 by CXCL10 in pDCs (CXCR3; CXCL10 10 μg/ml) | cell viability of pDCs from HDs (PI3Kδ)
1 | CCOc1ccc(-n2c([C@@H](C)N(Cc3cccnc3)C(=O)Cc3ccc(OC(F)(F)F)cc3)nc3ncccc3c2=O)cc1 [AMG487] | no effect | no effect | –
2 | CC[C@H](Nc1ncnc2[nH]cnc12)c1nc2cccc(F)c2c(=O)n1-c1ccccc1 [CAL-101] | – | – | without impacting

— patent US12427183B2, “Methods of treating cancer, infectious disease, and autoimmune disease using chemokines” (New York Society for the Relief of the Ruptured and …, priority 2016, dated 2025)
